We go through one compound from patent US20090264664A1, “PREPARATION FOR EXTERNAL APPLICATION COMPRISING SALT OF MAST CELL DEGRANULATION INHIBITOR HAVING CARBOXYL GROUP WITH ORGANIC AMINE” (MEDRX CO., LTD., priority 2005, published 2009).

Each structure is given as a SMILES string.

The data set in a line: Solubility of tranilast in various solvents with or without triisopropanolamine (Example 3). Type of data set: physicochemical. More on the design: key: ∘: complete dissolution of tranilast; x: no dissolution of tranilast. The following applies: tranilast 1 wt %. On the procedure: For preparation of test solutions (blending corresponding to 1 mol of triisopropanolamine), tranilast (1 wt %) and triisopropanolamine (0.56 wt %) were added, and glycerol, propylene glycol, butylene glycol, salicylic acid ethylene glycol, diethyl sebacate and isopropyl myristate were used as a balance to achieve 100 wt %, whereby each test solution was prepared.
For preparation of comparison control (without triisopropanolamine), tranilast (1 wt %) was added, and propylene glycol, salicylic acid ethylene glycol, diethyl sebacate and isopropyl myristate were used as a balance to achieve 100 wt %, whereby each test solution was prepared.
Using the test solutions and comparative controls prepared above, the solubility of tranilast in various solvents with or without triisopropanolamine was examined.

As to `CC(O)CN(CC(C)O)CC(C)O.COc1ccc(/C=C/C(=O)Nc2ccccc2C(=O)O)cc1OC` [1:1 salt with triisopropanolamine], the “solubility of tranilast in solvent” value is, setting by setting: (butylene glycol) “∘”; (diethyl sebacate) “∘”; (glycerol) “∘”; (isopropyl myristate) “x”; (propylene glycol) “∘”; (salicyl acid ethylene glycol) “∘”.
